This note sets out measurements from patent publication US20220324835A1 (Nurix Therapeutics, Inc., priority 2018, published 2022).

SMILES strings stand for the structures.

For experiment [1], the target named is T1, Cbl-b (Homo sapiens, UniProt Q13191). The experiment can be described thus: Cbl-b activity assay (Cbl-b inhibition assay), TR-FRET of Cbl-b interaction with UbcH5B-Ub. It counts as biochemical. The note with it: assay buffer with 100 mM NaCl, 60 nM Src kinase; read-out: Cbl-b activity IC50. An outline of the steps: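 Compound-treated Cbl-b was incubated 1.5 h with Src kinase (60 nM final; 30 nM for asterisked values, which also used 50 mM instead of 100 mM NaCl), 1 mM ATP and 5 mM MgCl2. Binding to fluorescent Ub-loaded UbcH5B (C85K mutant) was then read by TR-FRET after 1 h more.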
Background: Time-resolved FRET reads energy transfer from a long-lived donor to a nearby acceptor.

Experiment [2] deals with T-cell. The experiment can be described thus: IL-2 secretion from T-cells co-stimulated with anti-CD3 and anti-CD28 antibody (Biological Example 2). It counts as cell-based, human. The note with it: Homo sapiens, T-cell, primary human total T-cells, baseline = anti-CD3/anti-CD28 stimulated cells without inhibitor, read-out: IL-2 secretion, Anti-CD3/Anti-CD28 stimulation, fold change over baseline; for fold induction at 0.3 µM: 0.3 μM compound; for fold induction at 1 µM: 1 μM compound; for fold induction at 4 µM: 4 μM compound. The method in brief:
(§1)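 Values are fold-change over baseline: readings (IL-2 release, CD25 staining) from inhibitor-treated T-cells divided against untreated cells […]. No detailed procedure stated.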

The test system of experiment [3] is T-cell. The experiment can be described thus: CD25 cell surface staining on T-cells stimulated with anti-CD3 antibody alone (Biological Example 2). The experiment is classed as cell-based. The note with it: primary human total T-cells, baseline = anti-CD3/anti-CD28 stimulated cells without inhibitor, read-out: CD25 staining, Anti-CD3 stimulation, fold change over baseline; for fold induction at 1 µM: 1 μM compound; for fold induction at 8 µM: 8 μM compound.

For experiment [4], the system named is T-cell. The experiment can be described thus: CD25 cell surface staining on T-cells co-stimulated with anti-CD3 and anti-CD28 antibody (Biological Example 2). The settings on record: Homo sapiens, T-cell, primary human total T-cells, baseline = anti-CD3/anti-CD28 stimulated cells without inhibitor, read-out: CD25 staining, Anti-CD3/Anti-CD28 stimulation, fold change over baseline; for fold induction at 0.3 µM: 0.3 μM compound; for fold induction at 1 µM: 1 μM compound; for fold induction at 4 µM: 4 μM compound. The experiment is classed as cell-based, human. The method in brief: as §1

The target of experiment [5] is T1, Cbl-b. The experiment can be described thus: Cbl-b inhibition assay (Cbl-b activity assay, FRET, Biological Example 1; 100 mM NaCl, 60 nM Src kinase). The settings on record: upper bound stated in text lists; read-out: IC50 values in the Cbl-b inhibition assay of Biological Example 1. The experiment is classed as biochemical. An outline of the steps:
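FRET read-out: loss of signal marks inhibition. Mix = biotin-Avi-Cbl-b (N-term), Src kinase, UbcH5B-Ub(Bodipy-FL, irreversible conjugate), streptavidin-Tb, assay buffer.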

Experiment [6] relates to T-cell. The experiment can be described thus: IL-2 secretion from T-cells stimulated with anti-CD3 antibody alone (Biological Example 2). It counts as cell-based. The settings on record: primary human total T-cells, read-out: IL-2 secretion, Anti-CD3 stimulation, fold change over baseline; for fold induction at 1 µM: 1 μM compound; for fold induction at 8 µM: 8 μM compound.

T1 sequence (Q13191 36-427): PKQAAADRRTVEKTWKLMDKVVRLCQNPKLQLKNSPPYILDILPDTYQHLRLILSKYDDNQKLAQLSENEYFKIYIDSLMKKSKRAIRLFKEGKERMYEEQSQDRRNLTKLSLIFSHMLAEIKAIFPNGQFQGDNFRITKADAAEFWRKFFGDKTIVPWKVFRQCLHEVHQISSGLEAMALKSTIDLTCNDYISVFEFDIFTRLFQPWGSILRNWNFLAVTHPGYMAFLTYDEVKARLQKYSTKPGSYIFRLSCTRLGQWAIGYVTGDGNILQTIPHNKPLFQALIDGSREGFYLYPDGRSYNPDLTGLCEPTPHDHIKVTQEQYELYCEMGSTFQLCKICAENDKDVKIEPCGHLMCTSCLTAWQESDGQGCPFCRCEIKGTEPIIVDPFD

What is called IC50 is the midpoint of a concentration-inhibition curve. For `C[C@H](Cc1nocc1C(F)(F)F)c1cccc(N2Cc3c(cc(C(=O)N4CC[C@H](O)C4)cc3C(F)(F)F)C2=O)c1` [Compound 484, 6-[(3S)-3-hydroxypyrrolidine-1-carbonyl]-4-(trifluoromethyl)-2-[3-[(2R)-1-[4-(trifluoromethyl)-1,2-oxazol-3-yl]propan-2-yl]phenyl]-2,3-dihydro-1H-isoindol-1-one], the IC50 was 100 to 300 nM in experiment [1] and at most 300 nM in experiment [5]. The values for the fold induction at 0.3 µM in experiment [2] and in experiment [4] were 1.01 to 2.5 and 1.01 to 1.3, respectively. Further, the fold induction at 1 µM in experiment [2] fell in the range of 1.01 to 2.5; in experiment [3], 0.601 to 0.8; in experiment [4], 1.01 to 1.3; in experiment [6], 0.051 to 0.1. The fold induction at 4 µM lay within 2.51 to 5 in experiment [2] and 1.31 to 1.5 in experiment [4]. The values for the fold induction at 8 µM in experiment [3] and in experiment [6] were above 1 and above 0.201, respectively.
For `C[C@H](Cc1nocc1C(F)(F)F)c1cccc(N2Cc3c(cc(CN4CC[C@H](F)C4)cc3C(F)(F)F)C2=O)c1` [Compound 485, 6-[[(3S)-3-fluoropyrrolidin-1-yl]methyl]-4-(trifluoromethyl)-2-[3-[(2R)-1-[4-(trifluoromethyl)-1,2-oxazol-3-yl]propan-2-yl]phenyl]-2,3-dihydro-1H-isoindol-1-one], the IC50 in experiment [1] was 100 to 300 nM; in experiment [5], at most 300 nM. Also, the fold induction at 0.3 µM in experiment [2] was 1.01 to 2.5; in experiment [4], 1.01 to 1.3. In addition, the fold induction at 1 µM was 1.01 to 2.5 in experiment [2], 0.601 to 0.8 in experiment [3], 1.01 to 1.3 in experiment [4] and below 0.05 in experiment [6]. The fold induction at 4 µM in experiment [2] was 2.51 to 5; in experiment [4] it was 1.31 to 1.5. In addition, the figures for the fold induction at 8 µM in experiment [3] and in experiment [6] were above 1 and 0.101 to 0.15, respectively.
With `Cn1cnnc1CC1(c2cccc(N3Cc4c(cc(CN5CCCC6CC65)cc4C(F)(F)F)C3=O)c2)COC1` (stereo not drawn) [Compound 490, 6-((2-azabicyclo[4.1.0]heptan-2-yl)methyl)-2-(3-(3-((4-methyl-4H-1,2,4-triazol-3-yl)methyl)oxetan-3-yl)phenyl)-4-(trifluoromethyl)isoindolin-1-one], the IC50 is below 100 nM in experiment [1] and at most 100 nM in experiment [5]. Also, the fold induction at 0.3 µM in experiment [2] is above 7.5; in experiment [4] it was 1.01 to 1.3. Moreover, the fold induction at 1 µM is above 7.5 in experiment [2], above 1 in experiment [3], 1.01 to 1.3 in experiment [4] and above 0.201 in experiment [6].
Turning to `Cn1cnnc1CC1(c2cccc(N3Cc4c(cc(CN5CC6CC6(C)C5)cc4C(F)(F)F)C3=O)c2)COC1` (stereo not drawn) [Compound 491, 6-((1-methyl-3-azabicyclo[3.1.0]hexan-3-yl)methyl)-2-(3-(3-((4-methyl-4H-1,2,4-triazol-3-yl)methyl)oxetan-3-yl)phenyl)-4-(trifluoromethyl)isoindolin-1-one], the IC50 in experiment [1] was below 100 nM; in experiment [5], at most 100 nM. Further, the fold induction at 0.3 µM in experiment [2] is above 7.5; in experiment [4], 1.01 to 1.3. For the same molecule, the fold induction at 1 µM was above 7.5 in experiment [2], above 1 in experiment [3], 1.01 to 1.3 in experiment [4] and above 0.201 in experiment [6].
In the case of `Cn1cnnc1CC1(c2cccc(NC(=O)c3csc(C(F)(F)F)n3)c2)COC1` [Compound 492, N-(3-{3-[(4-methyl-1,2,4-triazol-3-yl)methyl]oxetan-3-yl}phenyl)-2-(trifluoromethyl)-1,3-thiazole-4-carboxamide], the IC50 in experiment [1] is below 100 nM; in experiment [5], at most 100 nM. For the same molecule, the fold induction at 0.3 µM in experiment [2] lay in the range of 1.01 to 2.5; in experiment [4] it was 1.01 to 1.3. Moreover, the fold induction at 1 µM in experiment [2] fell in the range of 1.01 to 2.5; in experiment [3], 0.601 to 0.8; in experiment [4], 1.01 to 1.3; in experiment [6], 0.051 to 0.1.
For the molecule `Cn1cnnc1CC1(c2cccc(NC(=O)c3nc(C4CC4)cs3)c2)COC1` [Compound 493, 4-cyclopropyl-N-(3-{3-[(4-methyl-1,2,4-triazol-3-yl)methyl]oxetan-3-yl}phenyl)-1,3-thiazole-2-carboxamide], the IC50 was 301 to 1000 nM in experiment [1] and at most 1000 nM in experiment [5]. The fold induction at 0.3 µM was below 1 in experiment [2] and 1.01 to 1.3 in experiment [4]. For the same molecule, the fold induction at 1 µM was 1.01 to 2.5 in experiment [2], below 0.6 in experiment [3], 1.01 to 1.3 in experiment [4] and below 0.05 in experiment [6].
For the molecule `Cn1cnnc1CC1(c2cccc(NC(=O)c3csc(C4CC4)n3)c2)COC1` [Compound 494, 2-cyclopropyl-N-(3-{3-[(4-methyl-1,2,4-triazol-3-yl)methyl]oxetan-3-yl}phenyl)-1,3-thiazole-4-carboxamide], the IC50 in experiment [1] is 100 to 300 nM; in experiment [5], at most 300 nM. Moreover, the fold induction at 0.3 µM in experiment [2] lay in the range of 1.01 to 2.5; in experiment [4] it was 1.01 to 1.3. Further, the fold induction at 1 µM in experiment [2] is 1.01 to 2.5; in experiment [3], 0.601 to 0.8; in experiment [4], 1.01 to 1.3; in experiment [6], 0.051 to 0.1.
Turning to `Cn1cnnc1CC1(c2cccc(NC(=O)c3cc(CN4CCC5CC54)cc(C4CC4)n3)c2)COC1` (stereo not drawn) [Compound 497, 4-{2-azabicyclo[3.1.0]hexan-2-ylmethyl}-6-cyclopropyl-N-(3-{3-[(4-methyl-1,2,4-triazol-3-yl)methyl]oxetan-3-yl}phenyl)pyridine-2-carboxamide], the IC50 is below 100 nM in experiment [1] and at most 100 nM in experiment [5]. Also, the figures for the fold induction at 0.3 µM in experiment [2] and in experiment [4] were above 7.5 and 1.31 to 1.5, respectively. For the same molecule, the fold induction at 1 µM was above 7.5 in experiment [2], above 1 in experiment [3], 1.31 to 1.5 in experiment [4] and above 0.201 in experiment [6].
`Cn1cnnc1CC1(c2cccc(NC(=O)c3cc(CN4C[C@H]5C[C@H]5C4)cc(C4CC4)n3)c2)COC1` [Compound 498, 4-{3-azabicyclo[3.1.0]hexan-3-ylmethyl}-6-cyclopropyl-N-(3-{3-[(4-methyl-1,2,4-triazol-3-yl)methyl]oxetan-3-yl}phenyl)pyridine-2-carboxamide]: the figures for the IC50 in experiment [1] and in experiment [5] were below 100 nM and at most 100 nM, respectively. Moreover, the results for the fold induction at 0.3 µM in experiment [2] and in experiment [4] were above 7.5 and 1.31 to 1.5, respectively. In addition, the fold induction at 1 µM in experiment [2] was above 7.5; in experiment [3] it was above 1; in experiment [4] it was 1.31 to 1.5; in experiment [6], above 0.201.
For `Cn1cnnc1CC1(c2cccc(NC(=O)c3cc(CN4C[C@@H]5[C@H](C4)C5(F)F)cc(C4CC4)n3)c2)COC1` [Compound 499], the IC50 in experiment [1] was below 100 nM; in experiment [5], at most 100 nM. The fold induction at 0.3 µM in experiment [2] is above 7.5; in experiment [4], 1.31 to 1.5. Besides, the fold induction at 1 µM was above 7.5 in experiment [2], above 1 in experiment [3], 1.31 to 1.5 in experiment [4] and above 0.201 in experiment [6].
For the molecule `Cc1conc1CC1(c2cccc(NC(=O)c3cc(CN4CCC5(CC5)C4)cc(C4CC4)n3)c2)COC1` [Compound 500, 4-{5-azaspiro[2.4]heptan-5-ylmethyl}-6-cyclopropyl-N-(3-{3-[(4-methyl-1,2-oxazol-3-yl)methyl]oxetan-3-yl}phenyl)pyridine-2-carboxamide], the IC50 is below 100 nM in experiment [1] and at most 100 nM in experiment [5]. The fold induction at 0.3 µM was above 7.5 in experiment [2] and 1.31 to 1.5 in experiment [4]. Moreover, the fold induction at 1 µM was above 7.5 in experiment [2], above 1 in experiment [3], 1.31 to 1.5 in experiment [4] and above 0.201 in experiment [6].
